In patent publication US11059832B2, “HPK1 inhibitors and methods of using same” (University Health Network, priority 2015, dated 2021) one finds minimal effective concentration and IC50 data, which are given here for one molecule.

Test [1] has as its system ERK1/2 T202/Y204 phosphorylation in α-CD3 stimulated Jurkat E6.1 cells. Description: In vitro phosphorylation assay, ERK1/2 T202/Y204 (immunoblot). The note with it: Homo sapiens, 4 h pretreatment, read-out: ERK1/2 T202/Y204 Phosphorylation Onset Inhibition. Type of test: cell-based. The procedure:
Jurkat E6.1 cells were obtained from American Type Culture Collection (ATCC, Manassas, Va.), and maintained according to the supplier's instructions. Cells were washed three times and starved in RPMI 1640 medium supplemented with 0.5% fetal calf serum for 18 h at 37° C. Serum starved cells were pretreated with the indicated concentration of inhibitor for 4 hours before stimulation with 10 μg/ml α-CD3 antibody (BioLegend, Inc., San Diego, Calif.) for 10 min at 37° C. The cells were washed once in phosphate-buffered saline (pH 7.4) containing 10 mm sodium pyrophosphate, 10 mm sodium fluoride, 10 mm EDTA, and 1 mm sodium orthovanadate. Protein lysates were prepared using ice-cold radioimmunoprecipitation assay (RIPA) lysis buffer. A total of 100 μg of cell lysate was loaded onto Bis-Tris gels (Life Technologies, Carlsbad, Calif.) with full-range molecular weight marker as a size reference, and resolved by SDS-PAGE electrophoresis. Proteins were transferred to PVDF membrane (Millipore, Billerica, Mass.), blocked and probed with antibodies for phospho-SLP-76 (Ser376) (rabbit polyclonal #13177; Cell Signaling Technology Inc., Danvers, Mass.), SLP-76 (rabbit polyclonal #4958; Cell Signaling Technology Inc., Danvers, Mass.), phospho-ERK (mouse monoclonal sc-7383; Santa Cruz Biotechnology Inc., Santa Cruz, Calif.) and ERK1/2 (rabbit polyclonal 06-182; Millipore, Billerica, Mass.). Secondary antibodies were diluted 1 in 15,000 and incubated for 1 h at rt. Protein bands were visualized and quantified using Odyssey near infrared imager (LI-COR, Lincoln, Nebr.).
Table 2 below lists effects of representative compounds of the present invention against SLP-76 serine 376 phosphorylation and ERK1/2 T202/Y204 phosphorylation in α-CD3 stimulated Jurkat E6.1 cells.
Background: A western blot detects proteins with antibodies after separation by electrophoresis.

For test [2], the target named is T1, human HPK1 (MAP4K1) (Homo sapiens, UniProt Q92918).
T1 construct: human HPK1 (aa 1-346); purchased Invitrogen PV6355
T1 sequence (Q92918 1-346): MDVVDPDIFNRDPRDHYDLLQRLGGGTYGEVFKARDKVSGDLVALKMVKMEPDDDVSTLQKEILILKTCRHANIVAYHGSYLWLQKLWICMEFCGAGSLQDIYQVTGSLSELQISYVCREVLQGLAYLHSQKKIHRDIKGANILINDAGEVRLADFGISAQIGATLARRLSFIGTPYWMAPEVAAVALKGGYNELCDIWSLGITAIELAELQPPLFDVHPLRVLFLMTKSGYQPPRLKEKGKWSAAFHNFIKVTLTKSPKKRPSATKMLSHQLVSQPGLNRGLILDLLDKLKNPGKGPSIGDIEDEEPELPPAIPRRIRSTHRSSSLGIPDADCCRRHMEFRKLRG
Description: HPK1 inhibition assay (indirect ELISA). Type of test: biochemical. The note with it: GST-HPK1 0.6 nM, 12 μM ATP; read-out: IC50 Range HPK1. The method, boiled down: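 GST-tagged human HPK1 (aa 1-346, 0.6 nM) phosphorylated MBP-coated wells with 12 μM ATP in MOPS pH 7.2/Mg2+ buffer for 30 min after 15-min compound preincubation; phospho-Thr detected by antibody ELISA with TMB, 450 nm. Tested at 10 μM or 10-point titration (typically 50-0.1 μM); IC50 by 4-parameter logistic fit.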
For orientation: ELISA stands for enzyme-linked immunosorbent assay.

As usually defined, the IC50 is the concentration that gives 50% inhibition. Regarding `CN1CCN(c2ccc3nc(-c4c(N)c5ccsc5[nH]c4=O)[nH]c3c2)CC1` [Example A1, 4-amino-5-(6-(4-methylpiperazin-1-yl)-1H-benzo[d]imidazol-2-yl)thieno[2,3-b]pyridin-6(7H)-one], in test [1], the minimal effective concentration was greater than 3 µM. The half-maximal inhibitory concentration (IC50) in test [2] was no more than 50 nM.
